Data reported in PMC8514546, “Structural basis of the P4B ATPase lipid flippase activity” (Nature Communications, 2021).

Experiments:
[1] = molecular target: T1, Neo1 (Saccharomyces cerevisiae, UniProt P40527); assay: cryo-EM structure, […] Å; format: binding; settings: E1-ATP state; AMPPCP at the N and P domain interface; 1 mM (Results) or 2 mM (Methods) AMPPCP, 5 mM MgCl2
T1 construct: full length (1151 residues), N-terminal triple FLAG tag, overexpressed in S. cerevisiae from pRS423 with GAP promoter; monomer, purified in LMNG/CHS
T1 sequence (P40527 1-1151): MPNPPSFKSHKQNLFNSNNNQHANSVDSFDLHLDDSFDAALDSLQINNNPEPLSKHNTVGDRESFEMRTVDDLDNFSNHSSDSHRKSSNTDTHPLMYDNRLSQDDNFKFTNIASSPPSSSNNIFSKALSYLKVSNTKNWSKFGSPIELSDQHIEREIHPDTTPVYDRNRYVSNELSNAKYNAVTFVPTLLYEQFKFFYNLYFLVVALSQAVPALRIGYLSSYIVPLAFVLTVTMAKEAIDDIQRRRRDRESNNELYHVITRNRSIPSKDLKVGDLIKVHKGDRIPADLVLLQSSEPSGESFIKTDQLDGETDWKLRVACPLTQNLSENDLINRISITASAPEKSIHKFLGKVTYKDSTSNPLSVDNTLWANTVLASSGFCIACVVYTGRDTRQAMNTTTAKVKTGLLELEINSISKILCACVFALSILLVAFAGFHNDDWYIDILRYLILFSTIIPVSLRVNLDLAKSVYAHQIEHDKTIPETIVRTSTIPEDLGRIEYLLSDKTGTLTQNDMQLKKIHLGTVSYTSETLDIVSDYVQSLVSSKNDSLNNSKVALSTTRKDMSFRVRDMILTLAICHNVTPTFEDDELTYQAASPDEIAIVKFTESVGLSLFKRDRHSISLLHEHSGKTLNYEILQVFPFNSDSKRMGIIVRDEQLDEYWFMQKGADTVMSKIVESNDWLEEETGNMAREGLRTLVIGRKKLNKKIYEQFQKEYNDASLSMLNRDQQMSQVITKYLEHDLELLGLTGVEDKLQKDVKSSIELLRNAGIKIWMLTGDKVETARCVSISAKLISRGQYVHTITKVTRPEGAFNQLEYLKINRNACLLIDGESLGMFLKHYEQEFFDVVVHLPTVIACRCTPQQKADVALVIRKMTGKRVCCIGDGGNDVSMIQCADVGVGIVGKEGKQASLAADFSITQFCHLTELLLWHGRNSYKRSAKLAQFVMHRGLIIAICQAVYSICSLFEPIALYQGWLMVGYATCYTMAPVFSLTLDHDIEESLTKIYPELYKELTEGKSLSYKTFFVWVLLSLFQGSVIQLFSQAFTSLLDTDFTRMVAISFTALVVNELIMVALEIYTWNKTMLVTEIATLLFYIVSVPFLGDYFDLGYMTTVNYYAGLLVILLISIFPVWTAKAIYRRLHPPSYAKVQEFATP

[2] = molecular target: T1, Neo1; assay: lipid-stimulated ATP hydrolysis, released phosphate by BIOMOL Green; format: biochemical; settings: 0.25 mM ATP, 10 mM MgCl2, pH 7.4, 37 °C, LMNG/CHS, lipid in cholate; transport substrate, acyl chain not stated

Compound | cryo-EM structure, 5.6 Å [1] | Km [2]
Nc1ncnc2c1ncn2[C@@H]1O[C@H](COP(=O)(O)OP(=O)(O)CP(=O)(O)O)[C@@H](O)[C@H]1O [AMPPCP] | the AMPPCP density is clear and the molecule stabilizes the interface between the N and P domains | –
lyso-PS | – | 50.3 ± 8.8 µM
